Results taken from patent publication US9170257B2 (priority 2012, dated 2015).
Where two headings read alike, the source gives them in different places.

Assay: Plasma, urine and bile levels of curcumin and THC 15 minutes post-infusion
Type: in vivo, Beagle dogs
Details: for Plasma level / concentration at 15 min: mean±SE; for concentration at 15 min / Kp: both sexes, dog, in vivo, 10 mg/kg; for concentration at 15 min: Beagle; for Kp: beagle
Procedure: The results and analysis for the study are presented for intravenous infusion dosing of a total dose of 10 mg/kg infused over a period of either 2 or 8 hours. Plasma levels of curcumin and its metabolite, THC were measured at timed intervals post-dosing.
Bioanalysis was performed on two sets of samples, one set that was treated with phosphoric acid and one set that was not treated with phosphoric acid. […] Values that were below the limit of quantification were assigned a value of 0.
Fifteen minutes following either the 2 hour or 8 hour infusion, blood, urine and bile samples were taken, prior to the dogs being necropsied and organs removed for the isolation of tissues. Multiple samples of tissue weighing approximately 1 gram were removed and snap frozen in the presence or absence of phosphoric acid (H3PO4). For all tissue samples, the levels of curcumin and THC were determined using a method developed by the Bioanalytical Department at Nucro-Technics. […] Values that were below the limit of quantification were assigned a value of 0. […] Tissue distribution data was analyzed using, unless stated, the data from 4 dogs and are presented as the mean±standard error (S.E.).

For `COc1cc(CCC(=O)CC(=O)CCc2ccc(O)c(OC)c2)ccc1O` [THC, tetrahydrocurcumin], the Plasma level (15 min after 2 hour infusion, + H3PO4) was 1167 ± 379 ng/mL, the Plasma level (15 min after 8 hour infusion, no H3PO4) was 20 ± 4^2 ng/mL and the concentration at 15 min (15 min after 2 hour infusion, + H3PO4, read-out: Bile level) was 391 ± 197 ng/mL. The concentration at 15 min (15 min after 2 hour infusion, + H3PO4, read-out: Urine level) was 3590 ± 1080 ng/mL, the concentration at 15 min (15 min after 2 hour infusion, no H3PO4, read-out: Bile level) was 187 ± 74 ng/mL and the concentration at 15 min (15 min after 2 hour infusion, no H3PO4, read-out: Plasma level) was 38 ± 4 ng/mL. It also gave a concentration at 15 min (15 min after 2 hour infusion, no H3PO4, read-out: Urine level) of 6420 ± 1450 ng/mL, a concentration at 15 min (15 min after 8 hour infusion, + H3PO4, read-out: Bile level) of 168 ± 53 ng/mL and a concentration at 15 min (15 min after 8 hour infusion, + H3PO4, read-out: Plasma level) of 142 ± 122 ng/mL. The concentration at 15 min (15 min after 8 hour infusion, + H3PO4, read-out: Urine level) was 621 ± 206 ng/mL, the concentration at 15 min (15 min after 8 hour infusion, no H3PO4, read-out: Bile level) was 84 ± 12 ng/mL and the concentration at 15 min (15 min after 8 hour infusion, no H3PO4, read-out: Urine level) was 2450 ± 84 ng/mL. For the same compound, the Kp (higher infusion rate (5 mg/kg/hr), read-out: bile to plasma concentration ratio) was 1.2, the Kp (higher infusion rate (5 mg/kg/hr), read-out: urine to plasma concentration ratio) was 4.4 and the Kp (low infusion rate (1.25 mg/kg/hr), read-out: bile to plasma concentration ratio) was 0.3. It also gave a Kp (low infusion rate (1.25 mg/kg/hr), read-out: urine to plasma concentration ratio) of 3.1.
